System: neonatal cardiomyocytes
Assay: Myocyte calcium-contractility assay (cardiomyocyte beating anoxia assay)
Format: cell-based, rat
Settings: 16 hr anoxia, 2 hr reoxygenation; for Percent Activity: at dose for max. activity, Fluo-4 fluorescence
Experimental: 10× Heart Dissection Solution (HDS) contains the following components (g/l) in tissue culture grade water: NaCl, 68; HEPES, 47.6; NaH2PO4, 2; Glucose, 10; KCl, 4; MgSO4, 1, pH adjusted to 7.4. Prior to filter sterilization of diluted (1× HDS) solution, 10 mg phenol red was added to each 500 milliliters of medium. Transferrin and Bovine Insulin were obtained from Life Technologies, and resuspended at a concentration of 4 mg/ml in tissue culture grade water. DMEM-F12- DMEM/F12, powder, 1:1 containing glutamine and pyridoxine hydrochloride was purchased from Life Technologies. To one liter equivalent of the powder was added 2.43 g of sodium bicarbonate and 10 ml of 100× Penicillin/Streptomycin in 950 ml of tissue culture grade water with stirring. The pH was adjusted to 7.2 with 1M HCl and volume was adjusted to 1 liter. The solution was filter sterilized then 2.5 ml of 4 mg/ml Transferrin, 250 μl 4 mg/ml Insulin and 30.7 mg of bromodeoxyuridine were added. DMEM-F12 was also prepared with 4% FBS for pre-coating the tissue culture plates and initial suspension of the cardiomyocyte pellet. Collagenase solution-49 mg of collagenase was resuspended in 120 ml 1× HDS.
Tissue culture plasticware was pre-coated with DMEM-F12-4% FBS by incubating 50 μl per well of a 96-well plate. Two-day old rat pups were removed from their mothers and placed in a sterile container. Pups were dipped quickly into 70% alcohol, then decapitated and the body was placed in an empty sterile tissue culture dish. An incision was made starting at the neck and progressing towards the belly, cutting through the sternum. The heart was removed and placed in a tissue culture dishes containing 1× HDS. The atria were trimmed, and the remaining ventricles were placed into a separate tissue culture dish containing 1× HDS, where they were sectioned into 3-4 pieces each. Ventricles were then transferred to a sterile 250 ml glass flask and the 1× HDS was removed. Twenty milliliters of pre-warmed collagenase solution were added to the ventricles, followed by incubation at 37° C. with shaking. After 30 minutes, the collagenase solution was removed and replaced with 20 ml fresh pre-warmed collagenase. Incubation was continued for an additional 20 minutes. At the end of the incubation, any tissue chunks were allowed to settle prior to removing the collagenase (containing the isolated cardiomyocytes) from the disrupted tissue pieces. The isolated myocytes were added to a 50 ml Falcon tube containing 2 ml Fetal Bovine Serum (FBS). The remaining tissue pieces were subjected to a second digestion by adding 20 ml fresh pre-warmed collagenase and incubating as above for 20 minutes. This second digest was then centrifuged at 1000 rpm for 10 minutes in a GH 3.8 A rotor in an Allegra 6 Centrifuge (Beckman Instruments, Fullerton, Calif.). The resulting supernatant was discarded, and the cell pellet was suspended with 4 ml FBS. The resulting cell suspension was placed in the incubator at 37° C. This step was repeated several additional times to harvest additional material.
Percoll gradients were prepared by adding 2.5 ml of 10× HDS to 22.5 ml of Percoll (Life Technologies) with mixing (Percoll Stock). Top Gradient solution (11 ml Percoll Stock and 14 ml 1× HDS) and Bottom Gradient solution (13 ml Percoll Stock and 7 ml 1× HDS) were prepared. Four milliliters of the Top Gradient solution were transferred into 6×15 ml sterile Falcon tubes. Three milliliters of the Bottom Gradient solution were placed in each tube by inserting a serological pipette to the bottom of the tube and slowly adding the liquid.
All the digests (5 in total) were pooled in one 50 ml Falcon tube and centrifuged on a tabletop Allegra 6 Centrifuge (Beckman Instruments, Fullerton, Calif.) using a GH 3.8 A rotor at 1000 rpm for 10 minutes. The supernatant was discarded, and the cell pellet was resuspended in 12 ml of 1× HDS. Two milliliters of the cell suspension was added to the top of each gradient. […]

Row | Compound | Percent Activity | Dose for Max. Activity | cell viability
1 | CC1=C(CC/C(C)=C/CC/C(C)=C/Cc2cc(O)ccc2O)C(C)(C)CCC1 [jaspaquinol (3), 2-[3,7-dimethyl-9-(2,6,6-trimethyl-cyclohex-1-enyl)-nona-2,6-dienyl]-benzene-1,4-diol] | No activity at 75 μg/mL | – | –
2 | CC1=CCC[C@H](C)[C@]1(C)CC/C(C)=C/CCc1ccoc1 [(+)-subersin (2), 3-[4-methyl-6-(1,2,6-trimethyl-cyclohex-2-enyl)-hex-3-enyl]-furan] | 78% | 8 µg/mL | increased cell viability
3 | CC1=C(CC/C(C)=C/Cc2cc(C(=O)O)ccc2O)[C@]2(C)CCCC(C)(C)[C@H]2CC1 [(−)-subersic acid (1), 4-hydroxy-3-[3-methyl-5-(2,5,5,8a-tetramethyl-3,4,4a,5,6,7,8,8a-octahydro-naphthalen-1-yl)-pent-2-enyl]-benzoic acid] | 61% | 25 µg/mL | increased cell viability

— patent US6750247B2, “Sponge-derived terpenoids and methods of use” (Galileo Laboratories, Inc., priority 2001, dated 2004)
